From article PMC3486884 (PLoS Pathogens, 2012)
Read-outs that look alike come from different tables or passages of the source.

What was measured:
HRV1A [1] = test: Full cycle infectivity assay (virus titer, TCID50); format: cell-based, human rhinovirus; conditions: full cycle assays; BafA1 (0.5 nM), alone or drug combination
[2] = test system: clathrin-coated vesicles (CCV); test: Acridine orange measurements in clathrin-coated vesicles; conditions: AO red fluorescence assay
Description: CCV suspended in assay buffer (10 mM HEPES, pH7, 100 mM KCl, 1 mM EDTA) were incubated with 1 mM ATP, 2 µM AO (Molecular Probes). The ATPase reaction was initiated by adding MgCl2 to 1 mM and fluorescence was determined at 492/540 nm in a plate reader (Tecan, Männedorf, Switzerland) at room temperature after 10 min. BafA1 and samples without MgCl2 were used as controls.

v-ATPase = v-ATPase (Bos taurus, UniProt P23956); test: v-ATPase inhibition assay (Pi production in clathrin-coated vesicles); conditions: bovine brain clathrin-coated vesicles
Description: Cow brain CCV were prepared as described [59], diluted in assay buffer (200 mM sucrose, 50 mM KCl, 10 mM HEPES pH7, 1 mM EDTA, 5 µM nigericin, 10 µg/ml oligomycin, 1 mM vanadate) and incubated with the respective compounds at 4°C for 30 min. ATP (10 µl 2 mM ATP and 40 mM MgCl2) were added and the samples incubated at 37°C for 15 min. Production of inorganic phosphate (Pi) was measured with the Sensolyte MG phosphate assay kit according to the manufacturers protocols (AnaSpec).

[3] = nitazoxanide; cited from earlier work
HRV1A [4] = conditions: n=2
HRV2 [5] = conditions: HRV2, normalized to DMSO control (1), n=2, Figure S7A
HRV14 [6] = conditions: HRV14, normalized to DMSO control (1), n=2, Figure S7A
HRV16 [7] = conditions: HRV16, normalized to DMSO control (1), n=2, Figure S7A
CVA21 [8] = conditions: CVA21, normalized to DMSO control (1), n=2, Figure S7A
CVB3 = conditions: n=2
CVB4 [9] = conditions: CVB4, normalized to DMSO control (1), n=2, Figure S7A
HRV1A [10] = test: microbe, parasite or virus in culture; conditions: Human rhinovirus sp.
HRV2 [11] = test: microbe, parasite or virus in culture; conditions: Human rhinovirus sp., HRV2, HeLa, read-out: IC50 (HRV2)
HRV14 [12] = test: microbe, parasite or virus in culture; conditions: Human rhinovirus sp., HRV14, HeLa, read-out: IC50 (HRV14)
HRV16 [13] = test: microbe, parasite or virus in culture; conditions: Human rhinovirus sp., HRV16, HeLa, read-out: IC50 (HRV16)
CVA21 [14] = test: microbe, parasite or virus in culture; conditions: Coxsackievirus, CVA21, HeLa, read-out: IC50 (CVA21)
CVB4 [15] = test: microbe, parasite or virus in culture; conditions: Enterovirus B, CVB4, HeLa, read-out: IC50 (CVB4)
[16] = test system: influenza virus (strain A/Puerto Rico/8/34/H1N1 depicted PR8); test: microbe, parasite or virus in culture; conditions: unidentified influenza virus, A549, read-out: IC50 (PR8)
hepatitis C virus = conditions: cited from earlier work

For CO/C1=C\C(C)=C\[C@@H](C)[C@@H](O)[C@@H](C)C/C(C)=C/C=C/[C@H](OC)[C@@H]([C@@H](C)[C@@H](O)[C@H](C)[C@@]2(O)C[C@@H](O)[C@H](C)[C@@H](C(C)C)O2)OC1=O [BafA1, bafilomycin A1], the “decrease of virus titers” value (HRV1A [1]) was “about five-fold”, the “pH of isolated CCV” value [2] was “neutralized the pH of CCV in a dose-dependent manner” and the “v-ATPase activity (ATP hydrolysis, production of Pi)” value (v-ATPase) was “completely blocked the production of Pi”.
For CC(=O)Oc1ccccc1C(=O)Nc1ncc([N+](=O)[O-])s1 [Nitazoxanide, nitazoxanide], the pKa [3] is listed as 5.8.
O=C(Nc1ccc([N+](=O)[O-])cc1Cl)c1ccccc1O [TVB-1332] gave a relative infection (HRV1A [4]; 0.1 µM) of 0.99, a relative infection (HRV1A [4]; 0.3 µM) of 1.01 and a relative infection (HRV1A [4]; 0.9 µM) of 0.97. The relative infection (HRV1A [4]; 2.8 µM) was 0.61, the relative infection (HRV1A [4]; 8.3 µM) was 0.04 and the relative infection (HRV1A [4]; 25.0 µM) was 0.02. The relative infection (HRV2 [5]; 0.1 µM) was 0.94, the relative infection (HRV2 [5]; 0.3 µM) was 0.97 and the relative infection (HRV2 [5]; 0.9 µM) was 0.95. For the same compound, the relative infection (HRV2 [5]; 2.8 µM) was 0.38, the relative infection (HRV2 [5]; 8.3 µM) was 0.01 and the relative infection (HRV2 [5]; 25.0 µM) was 0.01. The relative infection (HRV14 [6]; 0.1 µM) was 0.91, the relative infection (HRV14 [6]; 0.3 µM) was 0.96 and the relative infection (HRV14 [6]; 0.9 µM) was 0.82. It also gave a relative infection (HRV14 [6]; 2.8 µM) of 0.47, a relative infection (HRV14 [6]; 8.3 µM) of 0.09 and a relative infection (HRV14 [6]; 25.0 µM) of 0.05. For the same compound, the relative infection (HRV16 [7]; 0.1 µM) was 0.98, the relative infection (HRV16 [7]; 0.3 µM) was 0.95 and the relative infection (HRV16 [7]; 0.9 µM) was 0.94. For the same compound, the relative infection (HRV16 [7]; 2.8 µM) was 0.66, the relative infection (HRV16 [7]; 8.3 µM) was 0.14 and the relative infection (HRV16 [7]; 25.0 µM) was 0.07. For the same compound, the relative infection (CVA21 [8]; 0.1 µM) was 0.91, the relative infection (CVA21 [8]; 0.3 µM) was 0.95 and the relative infection (CVA21 [8]; 0.9 µM) was 0.93. The relative infection (CVA21 [8]; 2.8 µM) was 1.02, the relative infection (CVA21 [8]; 8.3 µM) was 0.81 and the relative infection (CVA21 [8]; 25.0 µM) was 0.20. It also gave a relative infection (CVB3; 0.1 µM) of 1.01, a relative infection (CVB3; 2.8 µM) of 1.08 and a relative infection (CVB3; CVB3, 0.3 µM, normalized to DMSO control (1), Figure S7A) of 1.11. The relative infection (CVB3; CVB3, 0.9 µM, normalized to DMSO control (1), Figure S7A) was 1.07, the relative infection (CVB3; CVB3, 8.3 µM, normalized to DMSO control (1), Figure S7A) was 1.05 and the relative infection (CVB3; CVB3, 25.0 µM, normalized to DMSO control (1), Figure S7A) was 1.15. It also gave a relative infection (CVB4 [9]; 0.1 µM) of 1.10, a relative infection (CVB4 [9]; 0.3 µM) of 1.16 and a relative infection (CVB4 [9]; 0.9 µM) of 1.25. The relative infection (CVB4 [9]; 2.8 µM) was 0.86, the relative infection (CVB4 [9]; 8.3 µM) was 0.34 and the relative infection (CVB4 [9]; 25.0 µM) was 0.33. The IC50 (HRV1A [10]; HeLa, read-out: IC50 (HRV1A)) was 3.19 µM, the activity at 0.03 µM (HRV1A [10]; M-HeLa, 7 h, read-out: HRV1A infection (dsRNA), 0.03 µM) was 108% and the activity at 0.1 µM (HRV1A [10]; M-HeLa, 7 h, read-out: HRV1A infection (dsRNA), 0.10 µM) was 98%. It also gave an activity at 0.31 µM (HRV1A [10]; M-HeLa, 7 h, read-out: HRV1A infection (dsRNA), 0.31 µM) of 96%, an activity at 0.93 µM (HRV1A [10]; M-HeLa, 7 h, read-out: HRV1A infection (dsRNA), 0.93 µM) of 88% and an activity at 2.78 µM (HRV1A [10]; M-HeLa, 7 h, read-out: HRV1A infection (dsRNA), 2.78 µM) of 44%. It also gave an activity at 8.33 µM (HRV1A [10]; M-HeLa, 7 h, read-out: HRV1A infection (dsRNA), 8.33 µM) of 5%, an activity at 25 µM (HRV1A [10]; M-HeLa, 7 h, read-out: HRV1A infection (dsRNA), 25.00 µM) of 4% and an IC50 (HRV2 [11]) of 2360 nM. For the same compound, the IC50 (HRV14 [12]) was 2470 nM, the IC50 (HRV16 [13]) was 3.74 µM and the IC50 (CVA21 [14]) was 14.7 µM. It also gave an IC50 (CVB4 [15]) of 8.01 µM and an IC50 [16] of about 2700 nM.
For CCN(CC)CCCC(C)Nc1ccnc2cc(Cl)ccc12 (stereo not drawn) [chloroquine], the IC90 (hepatitis C virus) is given as 20 µM.
With C/C=C/[C@H]1O[C@@](O)([C@@H](C)[C@H](O)[C@H](C)[C@H]2OC(=O)/C(OC)=C/C(C)=C/[C@@H](C)[C@@H](O)[C@@H](CC)[C@@H](O)[C@H](C)C/C(C)=C/C=C/[C@@H]2OC)C[C@@H](O[C@H]2C[C@@H](O)[C@H](OC(N)=O)[C@@H](C)O2)[C@@H]1C [concanamycin A] the “pH of isolated CCV” value [2] was “neutralized the pH of CCV in a dose-dependent manner” and the “v-ATPase activity (ATP hydrolysis, production of Pi)” value (v-ATPase) was “completely blocked the production of Pi”.
